Assay results taken from US12662451B2, “Chemical compounds and uses thereof” (GLAXOSMITHKLINE INTELLECTUAL PROPERTY (NO.4) LIMITED, priority 2023, dated 2026).
Where a name gives a salt, the structure may show the parent alone.

biological target: T1, recombinant full-length WRN protein (1-1432) (Homo sapiens, UniProt Q14191); test: WRN unwinding activity, fluorogenic 384-well assay (Example A); format: biochemical; settings: WRN unwinding activity, 4 hr; Table 2; read-out: 4 hr UNW pIC50 (converted)
T1 construct: recombinant full-length WRN protein (1-1432)
T1 sequence (Q14191 whole entry): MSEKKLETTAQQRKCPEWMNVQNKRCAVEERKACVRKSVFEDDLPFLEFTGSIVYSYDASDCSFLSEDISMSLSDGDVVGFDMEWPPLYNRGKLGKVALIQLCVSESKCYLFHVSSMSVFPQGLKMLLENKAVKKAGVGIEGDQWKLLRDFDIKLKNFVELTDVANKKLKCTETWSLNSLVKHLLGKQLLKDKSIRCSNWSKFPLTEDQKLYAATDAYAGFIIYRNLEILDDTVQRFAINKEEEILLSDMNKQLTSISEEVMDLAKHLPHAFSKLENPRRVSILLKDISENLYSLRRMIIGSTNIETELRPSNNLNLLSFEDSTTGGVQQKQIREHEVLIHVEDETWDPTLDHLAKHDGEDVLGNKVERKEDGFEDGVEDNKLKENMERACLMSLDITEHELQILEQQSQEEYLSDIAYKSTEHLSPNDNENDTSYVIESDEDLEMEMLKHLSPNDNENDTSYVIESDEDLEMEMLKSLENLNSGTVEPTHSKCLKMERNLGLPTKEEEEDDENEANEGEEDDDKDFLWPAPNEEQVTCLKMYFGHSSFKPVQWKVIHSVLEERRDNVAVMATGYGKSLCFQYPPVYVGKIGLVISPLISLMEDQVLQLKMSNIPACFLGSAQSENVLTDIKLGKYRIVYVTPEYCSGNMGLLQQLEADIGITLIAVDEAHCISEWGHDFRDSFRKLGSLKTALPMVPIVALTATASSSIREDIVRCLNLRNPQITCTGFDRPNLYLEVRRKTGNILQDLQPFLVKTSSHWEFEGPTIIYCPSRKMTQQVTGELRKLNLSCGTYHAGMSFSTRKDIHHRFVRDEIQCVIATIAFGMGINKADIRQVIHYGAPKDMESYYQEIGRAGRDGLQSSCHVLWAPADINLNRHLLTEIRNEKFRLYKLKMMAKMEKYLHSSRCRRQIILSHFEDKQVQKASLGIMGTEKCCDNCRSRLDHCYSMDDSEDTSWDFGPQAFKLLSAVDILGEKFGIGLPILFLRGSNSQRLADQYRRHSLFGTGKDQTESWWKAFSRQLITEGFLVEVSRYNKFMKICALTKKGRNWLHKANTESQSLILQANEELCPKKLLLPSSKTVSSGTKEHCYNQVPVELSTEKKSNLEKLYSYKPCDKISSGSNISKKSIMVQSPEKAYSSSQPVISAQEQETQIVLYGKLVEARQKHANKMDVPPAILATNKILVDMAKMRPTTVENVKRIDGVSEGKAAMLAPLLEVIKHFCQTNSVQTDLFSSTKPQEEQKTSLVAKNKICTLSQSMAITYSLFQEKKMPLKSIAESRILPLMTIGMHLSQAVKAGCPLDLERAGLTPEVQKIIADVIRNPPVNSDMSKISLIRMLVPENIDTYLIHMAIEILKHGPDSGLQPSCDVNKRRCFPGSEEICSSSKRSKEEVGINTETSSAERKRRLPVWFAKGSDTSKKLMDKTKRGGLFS
Procedure, shortened: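 200 pM enzyme (2× stock) preincubated with compound 4 h at ambient temperature, then 200 μM ATP and 12 nM quenched TAMRA-labelled dsDNA (2× stocks) added for 60 min; EDTA-quenched. Buffer 25 mM Tris pH 8.0, 5 mM NaCl, 2 mM MgCl2. Fluorescence at 525/598 nm; pIC50 from four-parameter fit.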

| Compound | IC50 |
| --- | --- |
| O=C(O)[C@@H]1[C@@H](c2ccc(CCN3CCNC3=O)cc2)CCC[C@H]1C(=O)Nc1ccc(C(F)(F)F)cc1F [Example 60, (1R,2R,6S)-2-((2-fluoro-4-(trifluoromethyl)phenyl)carbamoyl)-6-(4-(2-(2-oxoimidazolidin-1-yl)ethyl)phenyl)cyclohexane-1-carboxylic acid] | 2510 nM |
| O=C(O)[C@@H]1[C@@H](c2ccc(C3CCCCC3)cc2)CCC[C@H]1C(=O)Nc1ccc(C(F)(F)F)cc1F [Example 62, (1R,2S,6R)-2-(4-cyclohexylphenyl)-6-((2-fluoro-4-(trifluoromethyl)phenyl)carbamoyl)cyclohexane-1-carboxylic acid] | 126 nM |
| O=C(O)[C@@H]1[C@@H](c2ccc(C3COC3)cc2)CCC[C@H]1C(=O)Nc1ccc(C(F)(F)F)cc1F [Example 63, (1R,2R,6S)-2-((2-fluoro-4-(trifluoromethyl)phenyl)carbamoyl)-6-(4-(oxetan-3-yl)phenyl)cyclohexane-1-carboxylic acid] | 1580 nM |
| O=C(O)[C@@H]1[C@@H](c2ccc(CC3(CO)COC3)cc2)CCC[C@H]1C(=O)Nc1ccc(C(F)(F)F)cc1F [Example 68, (1R,2R,6S)-2-((2-fluoro-4-(trifluoromethyl)phenyl)carbamoyl)-6-(4-((3-(hydroxymethyl)oxetan-3-yl)methyl)phenyl)cyclohexane-1-carboxylic acid] | 1580 nM |
| O=C(O)[C@@H]1[C@@H](c2ccc(C3CC3)cc2)CCC[C@H]1C(=O)Nc1ccc(C(F)(F)F)cc1F [Example 69, (1R,2S,6R)-2-(4-cyclopropylphenyl)-6-((2-fluoro-4-(trifluoromethyl)phenyl)carbamoyl)cyclohexane-1-carboxylic acid] | 6310 nM |
| O=C(O)[C@@H]1[C@@H](c2ccc(CC3CCNCC3)cc2)CCC[C@H]1C(=O)Nc1ccc(C(F)(F)F)cc1F [Example 71, (1R,2R,6S)-2-((2-fluoro-4-(trifluoromethyl)phenyl)carbamoyl)-6-(4-(piperidin-4-ylmethyl)phenyl)cyclohexane-1-carboxylic acid] | 100000 nM |
| CN(c1ccc([C@H]2CCC[C@@H](C(=O)Nc3ccc(C(F)(F)F)cc3F)[C@@H]2C(=O)O)cc1)S(=O)(=O)c1nnc[nH]1 [Example 96, (1R,2R,6S)-2-((2-fluoro-4-(trifluoromethyl)phenyl)carbamoyl)-6-(4-(N-methyl-4H-1,2,4-triazole-3-sulfonamido)phenyl)cyclohexane-1-carboxylic acid] | 0.501 nM |
| CN(c1ccc([C@H]2CCC[C@@H](C(=O)Nc3ccc(C(F)(F)F)cc3F)[C@@H]2C(=O)O)cc1)S(=O)(=O)c1cccc(-c2nnco2)c1 [Example 105, (1R,2R,6S)-2-((2-fluoro-4-(trifluoromethyl)phenyl)carbamoyl)-6-(4-((N-methyl-3-(1,3,4-oxadiazol-2-yl)phenyl)sulfonamido)phenyl)cyclohexane-1-carboxylic acid] | 1.58 nM |
| Cc1nc2cc(S(=O)(=O)N(C)c3ccc([C@H]4CCC[C@@H](C(=O)N[C@H]5CC[C@H](C(C)(C)O)CC5)[C@@H]4C(=O)O)cc3)ccc2n1C [Example 183, (1R,2R,6S)-2-(((1r,4R)-4-(2-hydroxypropan-2-yl)cyclohexyl)carbamoyl)-6-(4-((N,1,2-trimethyl-1H-benzo[d]imidazole)-5-sulfonamido)phenyl)cyclohexane-1-carboxylic acid] | 6.31 nM |
| Cc1nc2cc(S(=O)(=O)N(C)c3ccc([C@H]4CCC[C@@H](C(=O)NC5CCC6(CCCC6)CC5)[C@@H]4C(=O)O)cc3)ccc2n1C [Example 184, (1R,2R,6S)-2-(spiro[4.5]decan-8-ylcarbamoyl)-6-(4-((N,1,2-trimethyl-1H-benzo[d]imidazole)-5-sulfonamido)phenyl)cyclohexane-1-carboxylic acid, formic acid salt] | 631 nM |
| Cc1nc2cc(S(=O)(=O)N(C)c3ccc([C@H]4CCC[C@@H](C(=O)NC56CC(C(F)(F)F)(C5)C6)[C@@H]4C(=O)O)cc3)ccc2n1C [Example 185, (1R,2R,6S)-2-((3-(trifluoromethyl)bicyclo[1.1.1]pentan-1-yl)carbamoyl)-6-(4-((N,1,2-trimethyl-1H-benzo[d]imidazole)-5-sulfonamido)phenyl)cyclohexane-1-carboxylic acid, formic acid salt] | 63.1 nM |

Other lines, results leading:

| IC50 | Compound |
| --- | --- |
| 6310 nM | O=C(O)[C@@H]1[C@@H](c2ccc(-c3ccnc4ccsc34)cc2)CCC[C@H]1C(=O)Nc1ccc(C(F)(F)F)cc1F [Example 44, (1R,2R,6S)-2-((2-fluoro-4-(trifluoromethyl)phenyl)carbamoyl)-6-(4-(thieno[3,2-b]pyridin-7-yl)phenyl)cyclohexane-1-carboxylic acid] |
| 126 nM | O=C(O)[C@@H]1[C@@H](c2ccc(-c3nncc4ccoc34)cc2)CCC[C@H]1C(=O)Nc1ccc(C(F)(F)F)cc1F [Example 45, (1R,2R,6S)-2-((2-fluoro-4-(trifluoromethyl)phenyl)carbamoyl)-6-(4-(furo[2,3-d]pyridazin-7-yl)phenyl)cyclohexane-1-carboxylic acid] |
| 31.6 nM | Cc1sccc1-c1ccc([C@H]2CCC[C@@H](C(=O)Nc3ccc(C(F)(F)F)cc3F)[C@@H]2C(=O)O)cc1 [Example 46, (1R,2R,6S)-2-((2-fluoro-4-(trifluoromethyl)phenyl)carbamoyl)-6-(4-(2-methylthiophen-3-yl)phenyl)cyclohexane-1-carboxylic acid] |
| 10 nM | Cc1cc(-c2ccc([C@H]3CCC[C@@H](C(=O)Nc4ccc(C(F)(F)F)cc4F)[C@@H]3C(=O)O)cc2)cs1 [Example 47, (1R,2R,6S)-2-((2-fluoro-4-(trifluoromethyl)phenyl)carbamoyl)-6-(4-(5-methylthiophen-3-yl)phenyl)cyclohexane-1-carboxylic acid] |
| 7.94 nM | O=C(O)[C@@H]1[C@@H](c2ccc(-c3csnc3CO)cc2)CCC[C@H]1C(=O)Nc1ccc(C(F)(F)F)cc1F [Example 50, (1R,2R,6S)-2-((2-fluoro-4-(trifluoromethyl)phenyl)carbamoyl)-6-(4-(3-(hydroxymethyl)isothiazol-4-yl)phenyl)cyclohexane-1-carboxylic acid] |
| 10 nM | O=C(O)[C@@H]1[C@@H](c2ccc(-c3cnsc3CO)cc2)CCC[C@H]1C(=O)Nc1ccc(C(F)(F)F)cc1F [Example 51, (1R,2R,6S)-2-((2-fluoro-4-(trifluoromethyl)phenyl)carbamoyl)-6-(4-(5-(hydroxymethyl)isothiazol-4-yl)phenyl) cyclohexane-1-carboxylic acid] |
| 794 nM | O=C(O)[C@@H]1[C@@H](c2ccc(-c3ncsc3CO)cc2)CCC[C@H]1C(=O)Nc1ccc(C(F)(F)F)cc1F [Example 52, (1R,2R,6S)-2-((2-fluoro-4-(trifluoromethyl)phenyl)carbamoyl)-6-(4-(5-(hydroxymethyl)thiazol-4-yl)phenyl)cyclohexane-1-carboxylic acid] |
| 1.58 nM | O=C(O)[C@@H]1[C@@H](c2ccc(C3=COCCC3)cc2)CCC[C@H]1C(=O)Nc1ccc(C(F)(F)F)cc1F [Example 56, (1R,2S,6R)—2-(4-(3,4-dihydro-2H-pyran-5-yl)phenyl)-6-((2-fluoro-4-(trifluoromethyl)phenyl)carbamoyl)cyclohexane-1-carboxylic acid] |
| 100 nM | O=C(O)[C@@H]1[C@@H](c2ccc(C3=CCOC3)cc2)CCC[C@H]1C(=O)Nc1ccc(C(F)(F)F)cc1F [Example 57, (1R,2S,6R)-2-(4-(2,5-dihydrofuran-3-yl)phenyl)-6-((2-fluoro-4-(trifluoromethyl)phenyl)carbamoyl) cyclohexane-1-carboxylic acid] |
